Assay results published in patent US8530512B2, “Broad spectrum gram-positive antimicrobials and anthelmintics with efficacy against drug-resistant strains and Mycobacterium species” (priority 2004, dated 2013).
Values after ≈ are worked out from the molar mass of the structure shown. Read-outs that look alike come from different tables or passages of the source.

Key:
[1] = system: C. elegans; test: motility assay; type: in vivo; set-up: key to Movement score, 1/1600 / Movement score, 1/800 / Movement score, 1/400 / Movement score, 1/200 / Movement score, 1/100: normal (−); slow (+); very slow (++); not motile/paralyzed (+++); conditions: Ive 1 ng/μL in all wells; for Movement score, 1/100: dilution 1/100 of stock (10.24 μg/μL; SK-03-92 1.024 μg/μL); for Movement score, 1/200: dilution 1/200 of stock (10.24 μg/μL; SK-03-92 1.024 μg/μL); for Movement score, 1/400: dilution 1/400 of stock (10.24 μg/μL; SK-03-92 1.024 μg/μL); for Movement score, 1/800: dilution 1/800 of stock (10.24 μg/μL; SK-03-92 1.024 μg/μL); for Movement score, 1/1600: dilution 1/1600 of stock (10.24 μg/μL; SK-03-92 1.024 μg/μL), overnight 20° C.
[2] = system: Bacillus cereus; test: microbe, parasite or virus in culture; type: cell-based; conditions: Bacillus cereus; per-compound listing, Example 6; read-out: MIC B. cereus
[3] = system: Staphylococcus aureus MRSA MC-1; test: microbe, parasite or virus in culture; type: cell-based; conditions: for MIC: Staphylococcus aureus, MRSA; for MIC S. aureus MC-1: Table 6
[4] = system: Mycobacterium avium; test: MIC assay; type: cell-based; conditions: Table 6; for MIC: Mycobacterium avium, read-out: MIC M. avium
[5] = system: Staphylococcus aureus ATCC 29213; test: microbe, parasite or virus in culture; type: cell-based; conditions: for MIC: Staphylococcus aureus, ATCC29213
[6] = system: Mycobacterium chelonae; test: MIC assay; type: cell-based; conditions: Table 6; for MIC: read-out: MIC M. chelonae
[7] = system: Mycobacterium fortuitum; test: MIC assay; type: cell-based; conditions: Table 6; for MIC: Mycolicibacterium fortuitum, read-out: MIC M. fortuitum
[8] = system: M. smegmatis; test: MIC assay; type: cell-based; conditions: for MIC: Mycolicibacterium smegmatis, read-out: MIC M. smegmatis
[9] = system: M. kansasii; test: MIC assay; type: cell-based; conditions: Table 6; for MIC: Mycobacterium kansasii, read-out: MIC M. kansasii
[10] = system: Mycobacterium intracellulare; test: MIC assay; type: cell-based; conditions: Table 6; for MIC: Mycobacterium intracellulare, read-out: MIC M. intracellulare
[11] = Table 6, read-out: MIC S. aureus ATCC 29213

COc1cc(O)cc(/C=C/Oc2cccc3ccccc23)c1 [SK-04-22]
Movement score, 1/100 [1]: ++ | Movement score, 1/200 [1]: + | Movement score, 1/400 [1]: + | Movement score, 1/800 [1]: − | Movement score, 1/1600 [1]: − | MIC [2]: 8 µg/mL (≈ 27.4 µM) | MIC ([3]; read-out: MIC MRSA): 16 µg/mL (≈ 54.7 µM) | MIC ([3]; read-out: MIC S. aureus MC-1): 16 µg/mL (≈ 54.7 µM) | MIC [4]: 64 µg/mL (≈ 219 µM) | MIC [5, 11]: 16 µg/mL (≈ 54.7 µM) | MIC ([5]; per-compound listing, Example 6, read-out: MIC S. aureus): 32 µg/mL (≈ 109 µM) | MIC [6]: 256 µg/mL (≈ 876 µM) | MIC [7]: 128 µg/mL (≈ 438 µM) | MIC ([8]; per-compound listing, Example 6): 128 µg/mL (≈ 438 µM) | MIC M. smegmatis ([8]; Table 6): 128 µg/mL (≈ 438 µM) | MIC [9]: 64 µg/mL (≈ 219 µM) | MIC [10]: 128 µg/mL (≈ 438 µM)

CCOC(=O)/C=C\Sc1ccccc1C(=O)OC [SK-04-56]
MIC ([3]; read-out: MIC S. aureus MC-1): > 512 µg/mL | MIC [4]: 64 µg/mL (≈ 240 µM) | MIC [5, 11]: > 512 µg/mL | MIC [6]: 64 µg/mL (≈ 240 µM) | MIC [7]: 64 µg/mL (≈ 240 µM) | MIC ([8]; Table 6): 64 µg/mL (≈ 240 µM) | MIC [9]: 64 µg/mL (≈ 240 µM) | MIC [10]: 256 µg/mL (≈ 961 µM)

CCOC(=O)/C=C\Sc1ccc(C(C)(C)C)cc1 [SK-04-57]
Movement score, 1/100 [1]: + | Movement score, 1/200 [1]: − | Movement score, 1/400 [1]: − | Movement score, 1/800 [1]: − | Movement score, 1/1600 [1]: − | MIC ([3]; read-out: MIC S. aureus MC-1): > 512 µg/mL | MIC [4]: 64 µg/mL (≈ 242 µM) | MIC [5, 11]: > 512 µg/mL | MIC [6]: 8 µg/mL (≈ 30.3 µM) | MIC [7]: 4 µg/mL (≈ 15.1 µM) | MIC ([8]; Table 6): 16 µg/mL (≈ 60.5 µM) | MIC [9]: 16 µg/mL (≈ 60.5 µM) | MIC [10]: 128 µg/mL (≈ 484 µM)

CCOC(=O)/C=C\Sc1ncccn1 [SK-04-58F]
MIC S. aureus MC-1 [3]: >512 µg/mL | MIC M. avium [4]: 64 µg/mL (≈ 304 µM) | MIC S. aureus ATCC 29213 ([5]; Table 6): >512 µg/mL | MIC M. chelonae [6]: 32 µg/mL (≈ 152 µM) | MIC M. fortuitum [7]: 64 µg/mL (≈ 304 µM) | MIC M. smegmatis ([8]; Table 6): 64 µg/mL (≈ 304 µM) | MIC M. kansasii [9]: 64 µg/mL (≈ 304 µM) | MIC M. intracellulare [10]: 128 µg/mL (≈ 609 µM)

CCOC(=O)/C=C\Sc1nc2ccccc2s1 [SK-04-59F]
MIC S. aureus MC-1 [3]: >512 µg/mL | MIC M. avium [4]: 64 µg/mL (≈ 241 µM) | MIC S. aureus ATCC 29213 ([5]; Table 6): >512 µg/mL | MIC M. chelonae [6]: 8 µg/mL (≈ 30.1 µM) | MIC M. fortuitum [7]: 16 µg/mL (≈ 60.3 µM) | MIC M. smegmatis ([8]; Table 6): 16 to 32 µg/mL | MIC M. kansasii [9]: 8 µg/mL (≈ 30.1 µM) | MIC M. intracellulare [10]: 16 µg/mL (≈ 60.3 µM)

N#Cc1cccc(/C=C/SC2=NCCS2)c1 [SK-04-72]
MIC S. aureus MC-1 [3]: >512 µg/mL | MIC M. avium [4]: 64 µg/mL (≈ 260 µM) | MIC S. aureus ATCC 29213 ([5]; Table 6): >512 µg/mL | MIC M. chelonae [6]: 64 µg/mL (≈ 260 µM) | MIC M. fortuitum [7]: 64 µg/mL (≈ 260 µM) | MIC M. smegmatis ([8]; Table 6): 64 µg/mL (≈ 260 µM) | MIC M. intracellulare [10]: 64 µg/mL (≈ 260 µM)

N#Cc1cccc(/C=C/Sc2ncccn2)c1 [SK-04-73]
MIC S. aureus MC-1 [3]: >512 µg/mL | MIC M. avium [4]: 512 µg/mL (≈ 2140 µM) | MIC S. aureus ATCC 29213 ([5]; Table 6): 512 µg/mL (≈ 2140 µM) | MIC M. chelonae [6]: 256 µg/mL (≈ 1070 µM) | MIC M. fortuitum [7]: 256 µg/mL (≈ 1070 µM) | MIC M. smegmatis ([8]; Table 6): 64 µg/mL (≈ 267 µM) | MIC M. kansasii [9]: 128 µg/mL (≈ 535 µM) | MIC M. intracellulare [10]: 512 µg/mL (≈ 2140 µM)
